Experimental findings from patent publication US8722343B2, “Methods and compositions for the diagnosis and treatment of diabetes” (priority 2008, dated 2014) are described below.

The test system of series [1] is human isolated islets. Briefly: MTT viability assay in isolated human islets. The settings on record: 5 mM glutamate, three days, 16.7 mM glucose. It counts as cell-based. How it is done:
7A: MTT assay: 48 hrs after isolation, 20 islets/tube were incubated for three days with the indicated glutamate and DHK concentrations in the presence of 3.3 mM glucose or 16.7 mM glucose and viability was assessed by MTT assay. Data are expressed as % Relative Growth Rate (% RGR) versus control samples and are the means±SE of three different experiments performed in triplicate.
Human pancreatic islets were isolated from the pancreases of cadaveric multiorgan donors by using the procedure already described by Ricordi (Ricordi, et al, 1988). The islets used in this study were isolated from eight different organs. After the isolation, the islets were purified from the contaminant exocrine tissue by centrifugation on Ficoll gradients, obtaining a final purity that ranged from 60% to 80%, as assayed by dithizone staining (Ricordi et al, 1988). Islets were then cultured in RPMI 1640 tissue culture medium. […]
3-(4,5-Dimethylthiazol-2-yl)-2,5-diphenyltetrazolium bromide (MTT) assay. βTC3 cells were seeded at a density of 8×10^3 cells/well onto 96-well culture plates. […] After five days incubation, cell viability was assessed using the MTT method, according to the manufacturer's protocols (Sigma Aldrich). Coloured formazan product was determined spectrophotometrically at 540 nm. […] Data are expressed as % Relative Growth Rate (% RGR) versus control samples.
(In general: Tetrazolium assays rely on reduction of a dye to a coloured formazan, in cell work by metabolically active cells.)

The test system of series [2] is human isolated islets. It counts as cell-based. The settings on record: 16.7 mM glucose; DHK (0.3 mM) or L-glutamate (0.5 mM) alone. On the procedure:
FIG. 5: GLT1 CONTROLS HORMONE SECRETION IN HUMAN ISOLATED ISLETS. 48 hours after isolation, 20 human islets per tube were exposed to 3.3 or 16.7 mM glucose in the absence and the presence of either L-glutamate (0.5 mM), DHK (0.3 mM) or both L-glutamate and DHK, and insulin secretion measured. Levels of secreted insulin from islets were normalized to total insulin content. Data are expressed as % of insulin content and represent the mean±SD of two independent experiments performer in duplicate.
Insulin content and secretion were assessed on 20 islets, using a Micro-particle Enzyme Immunoassay (MEIA insulin, IMX System, Abbott Laboratories, Abbott Park, Ill., USA). Insulin secretion in response to increasing glucose concentrations, glutamate or DHK treatment was assessed by static incubation as previously described (Federici et al, 2000). Briefly, batches of 20 islets were pre-incubated in 1 ml of Krebs-Ringer buffer (KRB) supplemented with 3, 3 or 16.7 mM glucose for 30 min. Then the supernatants were replaced with Kreb's buffer containing 3, 3 or 16.7 mM glucose plus glutamate or the specific GLT1 inhibitor DHK (Sigma, St Louis, Mo., USA), as indicated. After a 30-min incubation at 37° C., the medium was removed and frozen for immunoassays. At the end of incubation, islets were lysed in lyses buffer and the total insulin content determined by immunoassay. […]

Series [3] deals with βTC3 cells. As to the kind of experiment: TUNEL apoptosis assay in βTC3 cells. It counts as cell-based. Particulars: 0.5 mM glutamate for 5 days. On the procedure: 1B: Glutamate overstimulation causes increased β-cell apoptosis. 24 hours after plating, βTC3 cells were incubated for five days with 0.5 mM glutamate, and cell apoptosis was assessed by TUNEL assay. The cell nuclei were labelled with PrI. Histograms on the right represent TUNEL positive cells per field, and are the mean±SE of two independent experiments performed in duplicate.
6C TUNEL assay: 24 hours after plating, βTC3 cells were incubated for five days with 0.1 mM DHK, and cell apoptosis was assessed by TUNEL assay. Cell nuclei were labelled with PrI. Data are presented as TUNEL positive cells per field (histograms on the right), and are the mean±SE of two independent experiments performed in duplicate. * P<0.05
(§1) 6D ShRNA interference. βTC3 cells were transfected with two different shRNA directed against GLT1 (Sh1, Sh3) or a control shRNA (ShC), and three days after transfection, cells were assayed for 3[H]-D-aspartate uptake (b) or lysed and the presence of GLT assayed by western blotting (a) or fixed and processed for TUNEL (c).
Apoptosis of β-TC3 cells was estimated using the terminal deoxynucleotidyltransferase-mediated dUTP-biotin nick end-labelling assay (TUNEL). […] Tunel-positive cells were counted by two independent observers using a 40× objective from at least 40 randomly selected fields per coverslip. […]

Series [4] has as its system αTC1 cells. As to the kind of experiment: MTT cell viability assay in αTC1 cells. It counts as cell-based, mouse. On the procedure:
1A: Glutamate induces a dose-dependent beta-cell death. […] Data are presented as % Relative Growth Rate (RGR) versus controls (100%) and represent the mean±SE of at least 7 independent experiments (n=6). * p<0.01 vs ctrl; ° p<0.01 vs Glu 5 mM in αTC1.
αTC1 were cultured in DMEM 25 mM glucose supplemented with 10% heat inactivated fetal bovine serum, 2 mM glutamine, and 100 IU/ml streptomycin/penicillin, as previously described (Galbiati et al, 2002). Experiments were performed between the 33 and 43 passage of cell culture. Cells were cultured under standard humidified conditions of 5% CO2 at 37° C.
(§2) 3-(4,5-Dimethylthiazol-2-yl)-2,5-diphenyltetrazolium bromide (MTT) assay. βTC3 cells were seeded at a density of 8×10^3 cells/well onto 96-well culture plates. Cells were allowed to attach and grow for 24 h in standard medium. Then medium was replaced with fresh medium containing glutamate, DHK (Dihydrokainic Acid, Sigma Aldrich), glutamate receptor inhibitors APV and CNQX (Sigma Aldrich) or ceftriaxone (Sigma Aldrich) at the indicated concentrations. […] Coloured formazan product was determined spectrophotometrically at 540 nm. 20 islets/tube were used to assess viability in human isolated islets. Data are expressed as % Relative Growth Rate (% RGR) versus control samples.

The test system of series [5] is βTC3 cells. As to the kind of experiment: MTT cell viability assay in βTC3 cells. It is filed as cell-based, mouse. On the procedure:
1A: Glutamate induces a dose-dependent beta-cell death. 24 hrs after plating, αTC1 and βTC3 cells were incubated for five days with the indicated glutamate concentrations and viability was assessed by MTT assay. Data are presented as % Relative Growth Rate (RGR) versus controls (100%) and represent the mean±SE of at least 7 independent experiments (n=6). * p<0.01 vs ctrl; ° p<0.01 vs Glu 5 mM in αTC1.
1C: β-cell death is prevented by pharmacological inhibition of ionotropic channels. 24 hrs after plating, αTC1 and βTC3 cells were incubated for five days with 0.025 mM CNQX (left panel) or 0.1 mM APV (right panel), in the presence or the absence of 5 mM glutamate and viability was assessed by MTT assay. Data are presented as % RGR versus control samples (100%) and represent the mean±SE of three independent experiments (n=5). * p<0.05
6B. MTT assay. 24 hrs after plating, αTC1 and βTC3 cells were incubated for five days with different DHK concentrations and viability was assessed by MTT assay. Data are presented as % RGR versus control (100%) and represent the mean±SE of three independent experiments (n=8). * (DHK versus control) p<0.05
8B: MTT assay: 24 hrs after plating, βTC3 cells were incubated for five days with the indicated ceftriaxone concentrations in the presence or absence of 5 mM glutamate and viability was assayed by MTT assay. Data are presented as % RGR versus control (100%) and represent the mean±SE of three independent experiments (n=8). *(ceftriaxone versus relative control) p<0.05.
βTC3 and αTC1 cells were derived from progeny of transgenic mice expressing SV40 large T-antigen under control of the rat insulin II 5′-flanking region or rat preproglucagon 5′-flanking region, respectively (Powers et al, 1990) and were originally provided by Douglas Hanahan (Department of Biochemistry and Biophysics, University of California, San Francisco, Calif.). βTC3 were grown in RPMI 1640 11 mM glucose, supplemented with 10% heat inactivated fetal bovine serum, 2 mM L-glutamine, and 100 IU/ml streptomycin/penicillin, as previously described (Galbiati et al, 2002). Experiments were performed between the 27 and 33 passage of cell culture.
as §2

Series [6] deals with GLT1. As to the kind of experiment: GLT1 expression in βTC3 cells by western blotting. It is filed as cell-based, mouse. Particulars: 10 μM ceftriaxone, five days. On the procedure:
as §1
8A: GL1 expression. 150.000 cells were plated on […] diameter Petri dishes and 24 hours after plating, they were incubated with 10 μM ceftriaxone for five days. After incubation cells were lysed and 100 μg of whole lysate extracts were separated onto a 9% SDS-PAGE and the expression of glutamate transporter was detected using specific anti-GLT1 or anti-β-catenin antibodies. The expression of GLT1 was quantified by densitometry, and normalized over β-catenin content. Shown is a representative experiment; Similar results were obtained in two other independent experiments.
βTC3 or αTC1 cells were seeded onto 6-cm tissue culture plates and allowed to attach and grow until confluence. […] After 1 h at 4 C, lysates were centrifuged at 13,000 rpm for 10 min, and 50 μg of total extracted proteins were analyzed on 9% SDS-PAGE and transferred onto nitrocellulose (Shleicher and Shull, Dassel, Germany). […] The signal intensities were densitometrically quantified using Scion Image software. […]
In general terms: In western blotting, separated proteins are transferred to a membrane and probed.

[7] abbreviates: acute exposure (15 min, 0.5 μM glutamate) or exposure for 2 days.

In the case of `N[C@@H](CCC(=O)O)C(=O)O` [glutamate], in series [1], the “RGR decrease (cell viability)” value is on record as 18%. In series [2], the “effect on insulin secretion” value is “No effect”. For the same compound, the “number of TUNEL positive cells” value in series [3] is given as “significant increase”. In series [4] (0.05 to 5 mM glutamate, five days), the “glutamate toxicity (cell viability)” value was “detectable only at the highest glutamate concentration (5 mM)”. In addition, the “effect on cell survival” value in series [4] (setting [7]) and in series [5] (setting [7]) was “did not find any effect” throughout. Moreover, the “reduction in RGR (cell viability)” value in series [5] (0.05 mM glutamate, five days) came out at 11.53 ± 0.52%; in series [5] (5 mM glutamate, five days), 51.46 ± 2.61%.

On to `CO/N=C(\C(=O)N[C@@H]1C(=O)N2C(C(=O)O)=C(CSc3nc(=O)c(=O)[nH]n3C)CS[C@H]12)c1csc(N)n1` [ceftriaxone], for which the GLT1/EAAT2 transporter expression result in series [6] was “increased transporter's expression”. In addition, the “protection from glutamate toxicity” value in series [5] (five days with ceftriaxone, 5 mM glutamate) is given as “dose-dependent protection”.

As to `N#Cc1cc2c(cc1[N+](=O)[O-])=NC(=O)C(=O)N=2` [CNQX, 6-Cyano-7-nitroquinoxaline-2,3-dione], in series [5] (0.025 mM CNQX with 5 mM glutamate, five days), the “increase in RGR relative to 5 mM glutamate” value turned out to be 30%. Besides, in series [5] (co-administration with 5 mM glutamate, five days, 0.025 mM CNQX or 0.1 mM APV), the “prevention of vulnerability of β-cells to glutamate” value was “partially prevented”.
